Reference: patent US20260200913A1, “ATROPISOMERS OF MAT2A INHIBITORS” (IDEAYA Biosciences, Inc., priority 2022, published 2026)

What was measured:
[1] = molecular target: T1, Human MAT2A (Homo sapiens, UniProt P31153); assay: Phosphate Sensor Fluorescence Assay (MAT2A enzyme inhibition); type: biochemical; conditions: 5.8 nM MAT2A (1-395), 500 uM L-methionine, 500 uM ATP, 1 hour at room temperature, fluorescence at 450 nm
T1 construct: Human MAT2A: Cepter, amino acids 1-395 Clone ID 334; purchased Cepter Clone ID 334, lot 00023-148
T1 sequence (P31153 whole entry, the tested form may be a part): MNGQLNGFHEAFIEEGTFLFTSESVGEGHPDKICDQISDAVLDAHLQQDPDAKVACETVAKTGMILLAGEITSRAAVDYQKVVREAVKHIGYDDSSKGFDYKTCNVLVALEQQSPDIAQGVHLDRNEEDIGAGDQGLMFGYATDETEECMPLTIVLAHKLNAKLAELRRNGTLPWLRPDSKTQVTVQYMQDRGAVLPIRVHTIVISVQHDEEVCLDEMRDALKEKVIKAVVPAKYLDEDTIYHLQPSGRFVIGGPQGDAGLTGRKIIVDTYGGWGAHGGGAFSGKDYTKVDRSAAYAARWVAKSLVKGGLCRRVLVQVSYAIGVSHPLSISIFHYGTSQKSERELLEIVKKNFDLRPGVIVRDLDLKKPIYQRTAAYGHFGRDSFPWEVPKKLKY
Description: MAT2A enzyme is incubated with a test compound in DMSO or DMSO and its substrates (L-methionine and ATP) in a microtiter plate. The enzymatic reaction is stopped by the addition of Working Phosphate Sensor Mixture. The plate is analyzed for fluorescence at 450 nm. The high control (DMSO with enzyme and its substrates) gives high fluorescence which represents no inhibition of enzymatic activity while the low control (DMSO with MAT2A substrates and no enzyme) gives low fluorescence which represents full inhibition of enzymatic activity. […]
For the assay, a mixture of 1 mM L-methionine/1 mM ATP (2× final pre-stopped concentration) in assay buffer: MAT2A (2× final pre-stopped concentration) in Assay Buffer and Working Phosphate Sensor Mixture (1.5 uM Phosphate Sensor/30 mM EDTA in Assay Buffer, which is 3× final concentrations) were prepared. […] The plate was read for fluorescence at 450 nm after exciting at 430 nm on a Tecan Spark microplate reader.
Percent inhibition was calculated in Chemical and Biological Information System (CBIS), (ChemInnovation Software Inc.). […]

[2] = tested on: HCT116 MTAP null cells; assay: HCT116 MTAP-Null Cell Line Viability; type: cell-based; conditions: final count 4-5 days post treatment (IncuCyte, GFP), normalized to DMSO wells
Description: Preparation: HCT116 WT and MTAP null cells were cultured in DMEM/F12+10% FBS at 37° C. Left the media, dissociation reagent, and PBS in room temperature at least 1 hr prior to start.
Process: Washed cells with 5 mL of PBS, aspirate the PBS. Added 1 mL of dissociation reagent (Trypsin, Gibco #25200114) and left at room temperature for 2-5 mins. When cells were detached, added 5 ml of fresh media. Cells were collected into a 10 mL tube and centrifuged at 1000 rpm for 5 minutes at room temperature. Aspirated media, resuspended in 5 mL fresh media, and counted on Bio-Rad TC20 Cell Counter. Based on the count and the table below, added cells to a clear flat bottom, TC-treated 384-well plate (Corning #3764).
Treated the cells the next day post splitting. Used a 10 mM stock of compound.
Process: Compound treatment was applied to cells using a Tecan D300e digital dispenser with a high concentration 20 micromolar and 3-fold serial dilutions over 9 concentrations in triplicate on a 384-well plate.
4-5 days post treatment, used a Live-Cell Analysis System (IncuCyte®) suitable for reading GFP to do a final count. Raw data were normalized based on the average value of the DMSO wells on each plate.

IC50 [1] [nM] | SMILES | EC50 [2] [nM]
3 | Nc1nc(=O)n(-c2ccccc2Cl)c2nc(C(F)(F)F)ccc12 (single isomer, unassigned) [Atropisomer Ia] | 20
60 | Nc1nc(=O)n(-c2ccccc2Cl)c2nc(C(F)(F)F)ccc12 (atropisomer, axis not shown) [Atropisomer Ib] | 149
